Results taken from US20250319140A1, “COMPOSITION” (MEIJI CO., LTD., priority 2019, published 2025).

Legend:
[1] = Weight gain suppressing effect in mice fed a high fat diet (body weight, weight gain, fat weight around the testes); type: in vivo; details: male C57BL/6J mice, compared with control group
Description: Male, 8-week-old C57BL/6J mice were divided into 5 groups and fed with a normal diet (AIN-93M) (manufactured by Oriental Yeast Co., Ltd.) or a high fat diet (HFD-60) (manufactured by Oriental Yeast Co., Ltd.). The groups fed with a high fat diet were administered with fructo-oligosaccharide (hereinafter, also referred to as “FOS”), a propionic acid bacterium (Propionibacterium freudenreichii ET-3, Accession No. FERM BP-8115, hereinafter also referred to as “P bacterium”), or both FOS and a propionic acid bacterium (hereinafter, also referred to as “FOS+P bacterium”), and bred for 8 weeks. The group fed with the high fat diet, but not administered with FOS and a propionic acid bacterium was defined as a control group. Meioligo™ P (manufactured by Meiji Food Materia Co., Ltd.) was used as FOS, which was incorporated in the high fat diet in an amount of 5% by mass, and administered. A bacterial solution (living cells) activated and cultured in GAM bouillon (manufactured by Nissui Pharmaceutical Co., Ltd.) was washed with physiological saline, and then the number of propionic acid bacteria was adjusted to 5×10^9 cfu/mL to prepare a propionic acid bacterium. This bacterial solution was forcibly administered orally at a dose of 0.2 mL once daily every day from the start date to the end date of the test. To the groups not administered with the propionic acid bacterium (normal diet group, control group and FOS-administered group), physiological saline was forcibly administered orally at a dose of 0.2 mL once daily every day from the start date to the end date of the test. The body weight during the test period, the fat weight around the testes at the time of dissection, and the propionic acid concentration in feces collected at the end day of the test were measured, and the amount of weight gain was calculated from the body weights at the start and end of the test, and used for evaluation.

[2] = system: propionic acid production in the intestine; experiment: Propionic acid concentration in feces of high fat diet-fed mice, measured by HPLC; type: in vivo; details: male C57BL/6J mice, feces collected at the end day of the test, compared with control group, P <0.05 paired t-test for the combination
Description: Male, 8-week-old C57BL/6J mice were divided into 5 groups and fed with a normal diet (AIN-93M) (manufactured by Oriental Yeast Co., Ltd.) or a high fat diet (HFD-60) (manufactured by Oriental Yeast Co., Ltd.). The groups fed with a high fat diet were administered with fructo-oligosaccharide (hereinafter, also referred to as “FOS”), a propionic acid bacterium (Propionibacterium freudenreichii ET-3, Accession No. FERM BP-8115, hereinafter also referred to as “P bacterium”), or both FOS and a propionic acid bacterium (hereinafter, also referred to as “FOS+P bacterium”), and bred for 8 weeks. The group fed with the high fat diet, but not administered with FOS and a propionic acid bacterium was defined as a control group. Meioligo™ P (manufactured by Meiji Food Materia Co., Ltd.) was used as FOS, which was incorporated in the high fat diet in an amount of 5% by mass, and administered. […] The body weight during the test period, the fat weight around the testes at the time of dissection, and the propionic acid concentration in feces collected at the end day of the test were measured, and the amount of weight gain was calculated from the body weights at the start and end of the test, and used for evaluation.
The propionic acid concentration in the feces was measured by HPLC after extracting the propionic acid from the feces. […]

Substance: Propionibacterium freudenreichii ET-3 [propionic acid bacterium]
- body weight ([1]; high fat diet (HFD-60), from the 6th week on of 8 weeks breeding): lower in the propionic acid bacterium-administered group than those in the control group
- fat weight around the testes ([1]; high fat diet, at dissection at end of 8-week test): low
- amount of weight gain ([1]; high fat diet, end day of the test (8 weeks) relative to initial body weight): low
- propionic acid concentration in the feces [2]: clearly higher than that in the control group
